Measurements: patent US20260242340A1, “COMPOUNDS AND METHODS FOR TREATING PROTEIN AGGREGATION DISEASES” (ACELOT, INC., priority 2023, published 2026)

Key:
[1] = biological target: toxic alpha-synuclein oligomers (Homo sapiens, UniProt P37840); assay: Neuronal cell toxicity assay (MTT), alpha-synuclein oligomers; assay type: cell-based; conditions: 10 μM compound; primary rat neurons; 100% = cells without alpha-synuclein oligomers, 0% = oligomers and DMSO
Description: Primary rat cortical and striatal neurons were prepared from foetuses' brain as previously described (Garcia et al., Diabetes, Obesity & Metabolism 2010, 12, 403-413; Roby et al., Food chemistry 2015, 171, 397-404; Colin et al., Biochimie 2016, 130, 178-187). Briefly, the embryos were extracted, brains were collected and dissected using a binocular magnifier. Embryonic cortical/striatal tissues were dissociated by a combination of enzymatic digestion and mechanical dissociation. The relative number of live cells in cell suspension was evaluated for each cortical and striatal neurons using Thoma cell counting chamber and Axio Scope A1 microscope (Carl Zeiss, Oberkochen, Germany). Dissociated neurons were plated (80,000 cells/well) in 48-well plates pre-coated with 15 μg/mL Poly-ornithine (Sigma), 1 μg/ml Laminin (Sigma). Cells were cultured in Neurobasal medium (Invitrogen, Paris, France) serum free of and supplemented with 2% (v/v) of B-27 Supplement (Invitrogen). […]
To induce neuronal toxicity, neurotoxin (oligomeric forms of Aβ, Tau and alpha-synuclein at 0.1-5 μM) were used. […] Cell viability was evaluated by a 3-(4,5-dimethylthiazol-2-yl)-2,5-diphenyl-2H-tetrazolium bromide (MTT) assay at 24-72 h post neurotoxin challenge. […] After complete solubilization of formazan, absorbance was recorded at 500 nm with a spectrophotometer (SpectraMax® i3x, Molecular Devices, San José, USA).

[2] = biological target: T1, amyloid beta peptide 42 (Aβ42) protein aggregates (Homo sapiens, UniProt P05067); assay: Atomic force microscopy (AFM) of amyloid beta peptide protein aggregation; assay type: biochemical; conditions: pre-incubated 10 μM Aβ42, 1:1 compound:Aβ42 ratio, 60 minutes after compound addition
T1 construct: amyloid beta peptide 42 (Aβ42) protein aggregates
T1 sequence (P05067 672-713 limits assumed): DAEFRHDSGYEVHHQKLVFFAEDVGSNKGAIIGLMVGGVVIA
Description: Atomic force microscopy (AFM) was utilized to study the effect of compound 1 on the formation of larger scale amyloid beta peptide 42 (Aβ42) protein aggregates and to determine the effect on pre-formed aggregates and fibrils. Amyloid beta peptide 42 protein aggregates are a major component of the amyloid plaques found in the brains of people with Alzheimer's disease. A 50 μL aliquot of 10 μM Aβ42 solution in 10 mM ammonium acetate was removed and drop-cast onto a mica disc, dried at ambient conditions in a desiccator, and imaged. It took approximately 5 min to prepare the peptide and for the disc to dry, making it the earliest time Aβ42 aggregation can be observed. After 5 min incubation, large globular aggregates formed but few fibrils were observed (FIG. 1A). After 60 min, there was a clear trend toward higher fibril content and larger oligomers. Thus, FIG. 1A represents a control, showing Aβ42 aggregation without the addition of any compound causing Aβ42 aggregation disruption.
Compound 1 was added to the same solution of pre-incubated Aβ42 in a 1:1 compound:Aβ42 ratio. The AFM image shown in FIG. 1B was taken at 60 minutes after compound 1 addition.

## CC(=O)Nc1ccc2c(c1)CCN(CCc1cccc(Cl)c1)C2 [Compound 1]
[1]
  % rescue at 10 μM comopund from toxic alpha-synuclein oligomers: 24%
[2]
  Aβ42 protein aggregation (AFM image, FIG. 1B): dramatic reduction
